Tests used:
[1] = Inhibition of bovine liver beta-glucosidase assessed as release of p-nitrophenol using p-nitrophenyl glycoside as substrate by spectrometric assay; set-up: species or system Bos taurus
[2] = Inhibition of yeast alpha-glucosidase assessed as release of p-nitrophenol using p-nitrophenyl glycoside as substrate by spectrometric assay; set-up: species or system Saccharomyces cerevisiae
Bos taurus [3] = organism: Bos taurus; assay: Inhibition of bovine liver beta-galactosidase assessed as release of p-nitrophenol at 1000 uM using p-nitrophenyl glycoside as substrate by spectrometric assay relative to control
Helix pomatia = assay: Inhibition of snail beta-mannosidase assessed as release of p-nitrophenol at 1000 uM using p-nitrophenyl glycoside as substrate by spectrometric assay relative control
[4] = Inhibition of Aspergillus niger amyloglucosidase assessed as release of p-nitrophenol using p-nitrophenyl glycoside as substrate by spectrometric assay
[5] = Inhibition of porcine kidney alpha-trehalase assessed as release of p-nitrophenol using p-nitrophenyl glycoside as substrate by spectrometric assay; set-up: species or system Sus scrofa
Penicillium decumbens = assay: Inhibition of Penicillium decumbens alpha-L-rhamnosidase assessed as release of p-nitrophenol at 1000 uM using p-nitrophenyl glycoside as substrate by spectrometric assay relative to control
Sus scrofa = organism: Sus scrofa; assay: Inhibition of porcine kidney alpha-trehalase assessed as release of p-nitrophenol at 1000 uM using p-nitrophenyl glycoside as substrate by spectrometric assay relative to control
[6] = target: T1, Sucrase-isomaltase, intestinal (Rattus norvegicus, UniProt P23739); assay: Inhibition of rat intestinal sucrase assessed as release of p-nitrophenol using p-nitrophenyl glycoside as substrate by spectrometric assay
[7] = target: T2, Lysosomal alpha-glucosidase (Homo sapiens, UniProt P10253); assay: Inhibition of human lysosomal alpha glucosidase assessed as release of p-nitrophenol using p-nitrophenyl glycoside as substrate by spectrometric assay
Prunus dulcis = assay: Inhibition of almond beta-glucosidase assessed as release of p-nitrophenol at 1000 uM using p-nitrophenyl glycoside as substrate by spectrometric assay relative to control
Saccharomyces cerevisiae = assay: Inhibition of yeast alpha-glucosidase assessed as release of p-nitrophenol at 1000 uM using p-nitrophenyl glycoside as substrate by spectrometric assay relative to control
Bos taurus [8] = organism: Bos taurus; assay: Inhibition of bovine liver beta-glucosidase assessed as release of p-nitrophenol at 1000 uM using p-nitrophenyl glycoside as substrate by spectrometric assay relative to control
[9] = target: Alpha-galactosidase (Coffea arabica) (UniProt Q42656); assay: Inhibition of coffee beans alpha-galactosidase assessed as release of p-nitrophenol at 1000 uM using p-nitrophenyl glycoside as substrate by spectrometric assay relative to control
[10] = target: T3, Alpha-mannosidase (Canavalia ensiformis) (UniProt C0HJB3); assay: Inhibition of jack bean alpha-mannosidase assessed as release of p-nitrophenol at 1000 uM using p-nitrophenyl glycoside as substrate by spectrometric assay relative to control
T3 sequence (whole entry): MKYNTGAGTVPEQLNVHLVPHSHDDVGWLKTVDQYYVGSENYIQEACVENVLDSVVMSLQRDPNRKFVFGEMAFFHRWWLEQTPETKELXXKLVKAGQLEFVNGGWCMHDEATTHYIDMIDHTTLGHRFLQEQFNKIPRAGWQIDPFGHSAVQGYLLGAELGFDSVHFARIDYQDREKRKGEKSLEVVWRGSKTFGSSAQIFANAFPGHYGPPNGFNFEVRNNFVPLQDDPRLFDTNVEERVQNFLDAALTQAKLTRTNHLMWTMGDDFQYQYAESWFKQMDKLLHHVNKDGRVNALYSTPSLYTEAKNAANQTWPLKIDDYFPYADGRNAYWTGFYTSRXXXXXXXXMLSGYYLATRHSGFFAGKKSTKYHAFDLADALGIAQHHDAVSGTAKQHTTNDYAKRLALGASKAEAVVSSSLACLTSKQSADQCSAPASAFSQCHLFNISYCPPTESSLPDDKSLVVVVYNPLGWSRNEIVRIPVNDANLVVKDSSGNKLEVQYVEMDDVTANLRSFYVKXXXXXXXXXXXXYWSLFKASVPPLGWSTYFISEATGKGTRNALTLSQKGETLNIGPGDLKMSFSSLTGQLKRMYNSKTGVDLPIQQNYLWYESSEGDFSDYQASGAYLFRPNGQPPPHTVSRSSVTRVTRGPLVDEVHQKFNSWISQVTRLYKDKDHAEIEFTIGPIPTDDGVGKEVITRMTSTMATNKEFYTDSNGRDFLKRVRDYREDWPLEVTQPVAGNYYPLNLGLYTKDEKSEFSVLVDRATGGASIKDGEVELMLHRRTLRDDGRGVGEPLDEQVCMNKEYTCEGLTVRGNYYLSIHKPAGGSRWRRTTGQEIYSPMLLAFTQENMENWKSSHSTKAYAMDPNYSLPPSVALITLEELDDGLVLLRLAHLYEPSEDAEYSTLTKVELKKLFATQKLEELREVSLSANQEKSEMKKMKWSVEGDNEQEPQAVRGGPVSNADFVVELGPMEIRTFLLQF

[11] = target: T4, Tissue alpha-L-fucosidase (Bos taurus) (UniProt Q2KIM0); assay: Inhibition of bovine kidney alpha-L-fucosidase assessed as release of p-nitrophenol at 1000 uM using p-nitrophenyl glycoside as substrate by spectrometric assay relative to control
T4 sequence (whole entry): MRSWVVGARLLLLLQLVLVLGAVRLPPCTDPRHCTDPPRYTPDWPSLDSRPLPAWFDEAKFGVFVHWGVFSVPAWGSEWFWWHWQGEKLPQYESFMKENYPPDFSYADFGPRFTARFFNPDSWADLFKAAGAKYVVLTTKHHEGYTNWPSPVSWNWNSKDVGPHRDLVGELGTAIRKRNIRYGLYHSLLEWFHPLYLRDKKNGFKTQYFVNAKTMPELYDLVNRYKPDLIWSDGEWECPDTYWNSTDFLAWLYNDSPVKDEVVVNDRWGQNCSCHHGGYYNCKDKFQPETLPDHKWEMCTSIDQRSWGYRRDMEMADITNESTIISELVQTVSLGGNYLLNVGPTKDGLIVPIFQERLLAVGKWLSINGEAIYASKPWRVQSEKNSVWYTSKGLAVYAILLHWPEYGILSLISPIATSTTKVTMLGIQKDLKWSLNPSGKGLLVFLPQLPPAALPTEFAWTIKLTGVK

Aspergillus niger = assay: Inhibition of Aspergillus niger amyloglucosidase assessed as release of p-nitrophenol at 1000 uM using p-nitrophenyl glycoside as substrate by spectrometric assay relative to control
Escherichia coli = assay: Inhibition of Escherichia coli beta-glucuronidase assessed as release of p-nitrophenol at 1000 uM using p-nitrophenyl glycoside as substrate by spectrometric assay relative to control
Bos taurus [12] = organism: Bos taurus; assay: Inhibition of bovine liver beta-glucronidase assessed as release of p-nitrophenol at 1000 uM using p-nitrophenyl glycoside as substrate by spectrometric assay relative to control
Rattus norvegicus = organism: Rattus norvegicus; assay: Inhibition of rat intestinal alpha-trehalase assessed as release of p-nitrophenol at 1000 uM using p-nitrophenyl glycoside as substrate by spectrometric assay relative to control
[13] = Inhibition of rice alpha-glucosidase assessed as release of p-nitrophenol using p-nitrophenyl glycoside as substrate by spectrometric assay; set-up: species or system Oryza sativa
[14] = target: T2, Lysosomal alpha-glucosidase; assay: Inhibition of human lysosomal alpha glucosidase assessed as release of p-nitrophenol at 1000 uM using p-nitrophenyl glycoside as substrate by spectrometric assay relative to control
[15] = target: T1, Sucrase-isomaltase, intestinal; assay: Inhibition of rat intestinal isomaltase assessed as release of p-nitrophenol using p-nitrophenyl glycoside as substrate by spectrometric assay
Oryza sativa = assay: Inhibition of rice alpha-glucosidase assessed as release of p-nitrophenol at 1000 uM using p-nitrophenyl glycoside as substrate by spectrometric assay relative to control
[16] = target: Sucrase-isomaltase, intestinal (Rattus norvegicus) (UniProt P23739); assay: Inhibition of rat intestinal sucrase assessed as release of p-nitrophenol at 1000 uM using p-nitrophenyl glycoside as substrate by spectrometric assay relative to control
[17] = Inhibition of Escherichia coli beta-glucuronidase assessed as release of p-nitrophenol using p-nitrophenyl glycoside as substrate by spectrometric assay
[18] = Inhibition of bovine liver beta-galactosidase assessed as release of p-nitrophenol using p-nitrophenyl glycoside as substrate by spectrometric assay; set-up: species or system Bos taurus

Sequence of Alpha-galactosidase (Coffea arabica) (Q42656 16-378 limits assumed): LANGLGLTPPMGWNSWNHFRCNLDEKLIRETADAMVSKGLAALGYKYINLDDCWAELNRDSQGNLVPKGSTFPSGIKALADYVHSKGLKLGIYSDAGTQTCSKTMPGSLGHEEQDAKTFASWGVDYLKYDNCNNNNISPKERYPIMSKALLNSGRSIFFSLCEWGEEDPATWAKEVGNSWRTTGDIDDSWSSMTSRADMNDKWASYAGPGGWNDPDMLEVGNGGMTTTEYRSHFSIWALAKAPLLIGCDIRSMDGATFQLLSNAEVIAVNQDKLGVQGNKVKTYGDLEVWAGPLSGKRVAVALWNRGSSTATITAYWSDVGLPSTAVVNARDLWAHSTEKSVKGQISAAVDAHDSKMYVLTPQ
T1 sequence (P23739 1-1013 limits assumed): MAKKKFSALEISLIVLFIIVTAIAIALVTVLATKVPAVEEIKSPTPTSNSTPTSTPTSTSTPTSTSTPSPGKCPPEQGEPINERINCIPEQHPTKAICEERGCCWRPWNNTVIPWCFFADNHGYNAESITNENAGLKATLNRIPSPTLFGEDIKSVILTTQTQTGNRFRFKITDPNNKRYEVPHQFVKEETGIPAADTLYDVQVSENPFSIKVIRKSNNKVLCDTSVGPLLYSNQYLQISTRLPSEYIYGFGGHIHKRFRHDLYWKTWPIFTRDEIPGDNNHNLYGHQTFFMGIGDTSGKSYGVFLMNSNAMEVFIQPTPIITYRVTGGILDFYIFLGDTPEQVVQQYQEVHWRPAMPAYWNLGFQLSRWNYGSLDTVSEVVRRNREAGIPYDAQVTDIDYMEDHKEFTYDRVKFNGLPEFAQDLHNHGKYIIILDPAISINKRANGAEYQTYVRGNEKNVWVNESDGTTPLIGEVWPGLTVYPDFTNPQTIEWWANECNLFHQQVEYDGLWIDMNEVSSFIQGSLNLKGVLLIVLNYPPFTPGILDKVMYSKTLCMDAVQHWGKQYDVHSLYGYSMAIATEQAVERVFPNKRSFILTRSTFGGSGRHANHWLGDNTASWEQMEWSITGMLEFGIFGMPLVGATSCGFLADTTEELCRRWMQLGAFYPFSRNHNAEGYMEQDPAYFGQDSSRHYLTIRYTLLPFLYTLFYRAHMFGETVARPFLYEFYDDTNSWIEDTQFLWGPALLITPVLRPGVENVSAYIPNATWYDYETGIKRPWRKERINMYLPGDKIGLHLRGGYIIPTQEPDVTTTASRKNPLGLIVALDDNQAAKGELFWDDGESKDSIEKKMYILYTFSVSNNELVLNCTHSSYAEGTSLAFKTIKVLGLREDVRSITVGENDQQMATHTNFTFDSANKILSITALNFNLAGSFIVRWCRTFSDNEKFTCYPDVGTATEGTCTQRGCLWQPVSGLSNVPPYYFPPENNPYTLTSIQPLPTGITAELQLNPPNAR
T1 sequence (P23739 1014-1841 limits assumed): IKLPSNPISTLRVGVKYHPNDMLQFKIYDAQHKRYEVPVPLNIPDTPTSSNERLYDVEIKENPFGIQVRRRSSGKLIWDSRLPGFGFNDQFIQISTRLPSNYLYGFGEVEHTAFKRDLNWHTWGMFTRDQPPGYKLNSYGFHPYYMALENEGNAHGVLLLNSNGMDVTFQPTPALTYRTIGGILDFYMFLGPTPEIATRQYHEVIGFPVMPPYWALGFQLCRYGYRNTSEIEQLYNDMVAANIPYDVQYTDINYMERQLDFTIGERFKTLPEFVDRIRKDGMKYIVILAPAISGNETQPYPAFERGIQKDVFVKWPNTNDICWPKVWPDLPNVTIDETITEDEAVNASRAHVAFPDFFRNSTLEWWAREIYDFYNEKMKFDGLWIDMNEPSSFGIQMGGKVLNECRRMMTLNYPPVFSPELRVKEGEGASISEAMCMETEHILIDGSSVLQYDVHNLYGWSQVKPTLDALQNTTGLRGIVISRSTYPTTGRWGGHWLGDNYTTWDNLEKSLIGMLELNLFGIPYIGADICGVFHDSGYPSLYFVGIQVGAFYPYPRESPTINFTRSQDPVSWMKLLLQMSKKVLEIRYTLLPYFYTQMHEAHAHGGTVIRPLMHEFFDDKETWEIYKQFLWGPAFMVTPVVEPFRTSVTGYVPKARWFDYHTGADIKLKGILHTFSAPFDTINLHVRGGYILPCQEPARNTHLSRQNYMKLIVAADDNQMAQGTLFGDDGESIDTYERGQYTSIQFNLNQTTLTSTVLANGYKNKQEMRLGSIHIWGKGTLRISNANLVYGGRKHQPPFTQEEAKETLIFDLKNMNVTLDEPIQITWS
Sequence of Sucrase-isomaltase, intestinal (Rattus norvegicus) (P23739 1-1013 limits assumed): as the sequence (P23739 1-1013 limits assumed) above
Sequence of Sucrase-isomaltase, intestinal (Rattus norvegicus) (P23739 1014-1841 limits assumed): as the sequence (P23739 1014-1841 limits assumed) above

Row | SMILES | IC50 [1] [µM] | inhibition (Bos taurus [3]) [%] | inhibition (Helix pomatia) [%] | inhibition (Penicillium decumbens) [%] | inhibition (Sus scrofa) [%] | IC50 [6] [µM] | IC50 [7] [µM] | inhibition (Prunus dulcis) [%] | inhibition (Saccharomyces cerevisiae) [%] | inhibition (Bos taurus [8]) [%] | inhibition [9] [%] | inhibition [10] [%] | inhibition [11] [%] | inhibition (Aspergillus niger) [%] | inhibition (Escherichia coli) [%] | inhibition (Bos taurus [12]) [%] | IC50 [15] [µM] | other results
1 | OC[C@H]1NC[C@@H](O)[C@@H]1O | 638 | < 50 | < 50 | < 50 | – | – | – | – | – | – | – | – | – | – | – | – | – | IC50 [2]: 0.15 µM; IC50 [4]: 362 µM; IC50 [5]: 4.8 µM
2 | C[C@]1(CO)NC[C@@H](O)[C@@H]1O | – | 37.6 | 0 | 10.1 | 3.9 | 2.2 | 16 | 6.8 | 12.4 | 35.7 | 0.6 | 3.8 | 10.9 | 4.7 | 4.8 | 4.3 | – | –
3 | Cc1ccc([C@@]2(CO)NC[C@H](O)[C@H]2O)cc1 | – | 22.6 | 0 | 7.4 | 0 | 1 | – | 7.8 | – | 16.7 | 0 | 0 | 3.3 | 8.3 | 0 | 8.7 | – | inhibition (Rattus norvegicus): 12.9%; IC50 [2]: 57 µM; IC50 [13]: 697 µM; inhibition [14]: 45.9%
4 | COc1ccc([C@]2(CO)NC[C@@H](O)[C@@H]2O)cc1 | – | 41 | 0 | 0 | 3 | 107 | – | 2.7 | 22 | 33.5 | 7.5 | 0.2 | 2.7 | 0 | 25 | 5.9 | – | inhibition (Oryza sativa): 37.8%; inhibition [14]: 40.2%
5 | OC[C@@]1(c2ccccc2)NC[C@@H](O)[C@@H]1O | – | 34.1 | 0 | 0 | 0.8 | – | – | 2.3 | 22 | 29.6 | 9.9 | 0 | 0 | 0 | 7.3 | 1.8 | – | inhibition (Oryza sativa): 18.6%; inhibition [16]: 42.8%; inhibition [14]: 35%
6 | CCCC[C@]1(CO)NC[C@@H](O)[C@@H]1O | – | 36.9 | 3.6 | 11.3 | 2.4 | 2.3 | 79 | 8 | 32.7 | 34.3 | 4.6 | 1.9 | 20.8 | 2 | – | 7.2 | – | IC50 [13]: 59 µM; IC50 [17]: 774 µM
7 | CCCCCCCCC[C@]1(CO)NC[C@@H](O)[C@@H]1O | – | – | 0 | 0 | 6.4 | 455 | 130 | 6.8 | – | 49.2 | 2.5 | 0 | 0 | 3.9 | 31.6 | 4.6 | – | IC50 [2]: 116 µM; IC50 [13]: 727 µM; IC50 [18]: 477 µM
8 | OC[C@@]1(c2cccc(F)c2)NC[C@@H](O)[C@@H]1O | – | 21.7 | 0 | 0 | 3.8 | 6.5 | – | 0.9 | 41.8 | 16.7 | 0 | 0 | 0 | 8.3 | 0 | 26.2 | – | inhibition (Rattus norvegicus): 0%; inhibition (Oryza sativa): 1.4%; inhibition [14]: 10.3%

Further molecules by falling IC50 [6], results first:

Row | IC50 [1] [µM] | inhibition (Bos taurus [3]) [%] | inhibition (Helix pomatia) [%] | inhibition (Penicillium decumbens) [%] | inhibition (Sus scrofa) [%] | IC50 [6] [µM] | IC50 [7] [µM] | inhibition (Prunus dulcis) [%] | inhibition (Saccharomyces cerevisiae) [%] | inhibition (Bos taurus [8]) [%] | inhibition [9] [%] | inhibition [10] [%] | inhibition [11] [%] | inhibition (Aspergillus niger) [%] | inhibition (Escherichia coli) [%] | inhibition (Bos taurus [12]) [%] | IC50 [15] [µM] | SMILES | other results
9 | – | 20.4 | 0 | 5.5 | 4.5 | 0.74 | 372 | 8.7 | – | 10.8 | 1.2 | 2.2 | 0 | 9.2 | 0.4 | 19.9 | – | OC[C@@]1(c2ccc(O)cc2)NC[C@@H](O)[C@@H]1O | inhibition (Rattus norvegicus): 0%; IC50 [2]: 64 µM; IC50 [13]: 337 µM
10 | 430 | – | – | – | – | 0.68 | 3.7 | 0 | – | – | – | – | – | – | – | – | 113 | CCCCCCCCC[C@@]1(CO)NC[C@H](O)[C@H]1O | –
11 | 183 | – | – | – | – | 0.64 | 5.6 | 6.2 | – | – | – | – | – | – | – | – | 2 | C[C@@]1(CO)NC[C@H](O)[C@H]1O | –
12 | 71 | – | – | – | – | 0.48 | 0.63 | 0.9 | – | – | – | – | – | – | – | – | 32 | OC[C@]1(c2ccccc2)NC[C@H](O)[C@H]1O | –
13 | – | – | – | – | – | 0.33 | 601 | 7.1 | – | 43 | – | – | – | – | – | – | 650 | COc1ccc([C@@]2(CO)NC[C@H](O)[C@H]2O)cc1 | –
14 | 226 | – | – | – | – | 0.23 | 2.4 | 0.9 | – | – | – | – | – | – | – | – | 13 | CCCC[C@@]1(CO)NC[C@H](O)[C@H]1O | –
